The values that follow come from patent publication US20260055102A1 (Redx Pharma Limited, priority 2022, published 2026).

Assay [1] has as its target Recombinant human DDR1 (aa440-876 containing a GST tag) (Homo sapiens (Human), UniProt Q08345). The assay is described as follows: LanthaScreen Eu Kinase Binding Assay DDR1. The conditions noted are these: Kinase Tracer 178 5 nM, at least two independent replicates; for IC50: read-out: DDR1 pIC50 (converted). As for the experimental part:
(§1) DDR1 and DDR2 Biochemical Assay Method The capacity of compounds to bind to DDR1 and DDR2 was quantified using a LanthaScreen Eu Kinase Binding Assay. Recombinant human DDR1 (2.5 nM; aa440-876 containing a GST tag) and DDR2 (1.75 nM; aa427-855 containing a GST tag) were diluted in assay buffer (50 mM HEPES pH7.3, 10 mM MgCl2, 1 mM EGTA and 0.01% Tween) with various concentrations of compound in a 384-well plate and a volume of 5 uL. After a 30-minute incubation at room temperature, 2.5 uL of Eu-anti GST antibody (diluted to 1 nM in assay buffer) plus Kinase Tracer 178 (diluted in assay buffer to 5 nM for DDR1 and 10 nM for DDR2) were added to the plate. Following 60-minute incubation at room temperature, time-resolved fluorescence was measured on a BMG Labtech PHERAstar plate reader. DMSO (1%) and reference compound (1 μM) were used to generate the Max and Min assay signals, respectively. Data was analysed using a four-parameter logistic model to calculate IC50 values, with at least two independent replicates were performed for each compound.
A general note: TR-FRET usually uses a lanthanide donor and a delayed reading to cut background.

Assay [2] has as its target Recombinant human DDR2 (aa427-855 containing a GST tag) (Homo sapiens (Human), UniProt Q16832). The assay is described as follows: LanthaScreen Eu Kinase Binding Assay DDR2. As to conditions: Kinase Tracer 178 10 nM, at least two independent replicates; for IC50: read-out: DDR2 pIC50 (converted). The protocol: as §1

Bounds are passed on as bounds.

Sequence of Recombinant human DDR2 (aa427-855 containing a GST tag) (Q16832 427-855): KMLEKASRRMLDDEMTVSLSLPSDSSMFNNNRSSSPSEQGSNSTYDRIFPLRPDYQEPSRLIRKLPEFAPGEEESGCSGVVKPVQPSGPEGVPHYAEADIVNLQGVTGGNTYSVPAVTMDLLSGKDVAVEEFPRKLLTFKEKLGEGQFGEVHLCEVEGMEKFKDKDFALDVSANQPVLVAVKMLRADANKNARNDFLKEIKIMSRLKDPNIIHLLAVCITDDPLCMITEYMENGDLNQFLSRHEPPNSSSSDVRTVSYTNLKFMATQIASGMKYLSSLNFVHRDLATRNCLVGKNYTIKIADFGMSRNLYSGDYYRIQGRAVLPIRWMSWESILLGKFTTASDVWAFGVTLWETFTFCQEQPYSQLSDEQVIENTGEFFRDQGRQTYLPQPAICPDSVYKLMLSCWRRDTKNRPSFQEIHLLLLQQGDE
Sequence of Recombinant human DDR1 (aa440-876 containing a GST tag) (Q08345 other isoform, or with tags, fused parts or gaps): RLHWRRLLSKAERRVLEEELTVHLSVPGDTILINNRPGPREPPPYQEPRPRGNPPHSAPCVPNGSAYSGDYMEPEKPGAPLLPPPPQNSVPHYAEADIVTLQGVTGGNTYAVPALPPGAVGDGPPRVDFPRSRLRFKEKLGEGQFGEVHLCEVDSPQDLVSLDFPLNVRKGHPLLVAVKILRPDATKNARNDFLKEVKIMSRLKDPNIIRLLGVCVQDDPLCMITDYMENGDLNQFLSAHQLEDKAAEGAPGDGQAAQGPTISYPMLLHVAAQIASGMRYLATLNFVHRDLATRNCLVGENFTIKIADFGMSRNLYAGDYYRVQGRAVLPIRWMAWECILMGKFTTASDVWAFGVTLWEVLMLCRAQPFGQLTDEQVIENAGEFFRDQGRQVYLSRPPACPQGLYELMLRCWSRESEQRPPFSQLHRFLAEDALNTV

Regarding `Cc1cccc2c1n(-c1ccc(-c3cncc4c3cnn4C)nc1)c(=O)n2CC(=O)N1CCOC(C(F)(F)F)C1` (stereo in doubt) [Example 55, 4-methyl-3-[6-(1-methylpyrazolo[3,4-c]pyridin-4-yl)-3-pyridyl]-1-[2-oxo-2-[(2S)-2-trifluoromethyl)morpholin-4-yl]ethyl]benzimidazol-2-one], the IC50 in assay [1] is under 10 nM; in assay [2], 100 to 1000 nM. For `Cn1ncc2c(-c3ccc(-n4c(=O)n(CC(=O)NCC(F)(F)F)c5ccccc54)cc3)cncc21` [Example 1, 2-[3-[4-(1-methylpyrazolo[3,4-c]pyridin-4-yl)phenyl]-2-oxobenzimidazol-1-yl]-N-(2,2,2-trifluoroethyl)acetamide], the IC50 in assay [1] is 10 to 100 nM. Besides, the “DDR2 pIC50” value in assay [2] is listed as “D (pIC50≤6)”.

With `Cn1ncc2c(-c3ccc(-n4c(=O)n(CC(=O)N5CCC[C@H]5C(F)(F)F)c5ccccc54)cc3)cncc21` [Example 2, 1-[4-(1-methylpyrazolo[3,4-c]pyridin-4-yl)phenyl]-3-[2-oxo-2-[(2S)-2-(trifluoromethyl)pyrrolidin-1-yl]ethyl]benzimidazol-2-one], in assay [1], the “DDR1 pIC50” value was “A (pIC50>8)”. In addition, in assay [2], the IC50 is 100 to 1000 nM.

As to `Cn1ncc2c(-c3ccc(-n4c(=O)n(CC(=O)NCC(F)(F)F)c5ccccc54)cc3F)cncc21` [Example 4, 2-[3-[3-fluoro-4-(1-methylpyrazolo[3,4-c]pyridin-4-yl)phenyl]-2-oxobenzimidazol-1-yl]-N-(2,2,2-trifluoroethyl)acetamide], the IC50 in assay [1] is 10 to 100 nM. Further, the “DDR2 pIC50” value in assay [2] is reported as “D (pIC50≤6)”.

`Cc1cc(-n2c(=O)n(CC(=O)NCC(F)(F)F)c3ccccc32)ccc1-c1cncc2c1cnn2C` [Example 5, 2-[3-[3-methyl-4-(1-methylpyrazolo[3,4-c]pyridin-4-yl)phenyl]-2-oxobenzimidazol-1-yl]-N-(2,2,2-trifluoroethyl)acetamide]: the “DDR1 pIC50” value in assay [1] was “D (pIC50≤6)”. Further, the “DDR2 pIC50” value in assay [2] is “D (pIC50≤6)”. On to `Cc1cccc2c1n(-c1ccc(-c3cncc4c3cnn4C)cc1)c(=O)n2CC(=O)NCC(F)(F)F` [Example 6, 2-[4-methyl-3-[4-(1-methylpyrazolo[3,4-c]pyridin-4-yl)phenyl]-2-oxobenzimidazol-1-yl]-N-(2,2,2-trifluoroethyl)acetamide], for which the “DDR1 pIC50” value in assay [1] was “A (pIC50>8)”. For the same molecule, the IC50 in assay [2] was 10 to 100 nM. Take `Cc1cccc2c1n(-c1ccc(-c3cncc4c3cnn4C)cc1)c(=O)n2CC(=O)N[C@@H](C)C(F)(F)F` [Example 7, 2-[4-methyl-3-[4-(1-methylpyrazolo[3,4-c]pyridin-4-yl)phenyl]-2-oxobenzimidazol-1-yl]-N-[(1S)-2,2,2-trifluoro-1-methylethyl]acetamide]: in assay [1], the “DDR1 pIC50” value was “A (pIC50>8)”. Also, in assay [2], the “DDR2 pIC50” value is listed as “A (pIC50>8)”. As for `Cc1cccc2c1n(-c1ccc(-c3cncc4c3cnn4C)cc1)c(=O)n2CC(=O)N1CCC[C@H]1C(F)(F)F` [Example 8, 4-methyl-3-[4-(1-methylpyrazolo[3,4-c]pyridin-4-yl)phenyl]-1-[2-oxo-2-[(2S)-2-(trifluoromethyl)pyrrolidin-1-yl]ethyl]benzimidazol-2-one], the “DDR1 pIC50” value in assay [1] is “A (pIC50>8)”. In addition, in assay [2], the “DDR2 pIC50” value was “A (pIC50>8)”.

Take `Cc1cccc2c1n(-c1ccc(-c3cncc4c3cnn4C)cc1)c(=O)n2CC(=O)N1CCOC(C(F)(F)F)C1` (stereo not shown) [Example 9, 4-methyl-3-[4-(1-methylpyrazolo[3,4-c]pyridin-4-yl)phenyl]-1-[2-oxo-2-[2-(trifluoromethyl)morpholin-4-yl]ethyl]benzimidazol-2-one]: the “DDR1 pIC50” value in assay [1] is “A (pIC50>8)”. The IC50 in assay [2] is 10 to 100 nM. Taken in the same sequence, the figures for `Cc1cccc2c1n(-c1ccc(-c3cncc4c3cnn4C)cc1)c(=O)n2CC(=O)N1CCO[C@@H](C(F)(F)F)C1` [Example 10, 4-methyl-3-[4-(1-methypyrazolo[3,4-c]pyridin-4-yl)phenyl]-1-[2-oxo-2-[(2R)-2-(trifluoromethyl)morpholin-4-yl]ethyl]benzimidazol-2-one] were “A (pIC50>8)” and 10 to 100 nM. The like results for `Cn1ncc2c(-c3ccc(-n4c(=O)n(CC(=O)NCC(F)(F)F)c5cccc(Cl)c54)cc3)cncc21` [Example 11, 2-[4-chloro-3-[4-(1-methylpyrazolo[3,4-c]pyridin-4-yl)phenyl]-2-oxobenzimidazol-1-yl]-N-(2,2,2-trifluoroethyl)acetamide] were, in that order, “A (pIC50>8)” and 10 to 100 nM. Consider `COc1cccc2c1n(-c1ccc(-c3cncc4c3cnn4C)cc1)c(=O)n2CC(=O)NCC(F)(F)F` [Example 12, 2-[4-methoxy-3-[4-(1-methylpyrazolo[3,4-c]pyridin-4-yl)phenyl]-2-oxobenzimidazol-1-yl]-N-(2,2,2-trifluoroethyl)acetamide], for which the IC50 in assay [1] is 10 to 100 nM. Further, the “DDR2 pIC50” value in assay [2] was “D (pIC50≤6)”. `Cc1cc(-c2cncc3c2cnn3C)ccc1-n1c(=O)n(CC(=O)NCC(F)(F)F)c2ccccc21` [Example 13, 2-[3-[2-methyl-4-(1-methylpyrazolo[3,4-c]pyridin-4-yl)phenyl]-2-oxobenzimidazol-1-yl]-N-(2,2,2-trifluoroethyl)acetamide]: the IC50 in assay [1] was 10 to 100 nM. For the same molecule, the “DDR2 pIC50” value in assay [2] was “D (pIC50≤6)”. As to `Cc1cc(-c2cncc3[nH]ncc23)ccc1-n1c(=O)n(CC(=O)NCC(F)(F)F)c2ccccc21` [Example 14, 2-[3-[2-methyl-4-(1H-pyrazolo[3,4-c]pyridin-4-yl)phenyl]-2-oxobenzimidazol-1-yl]-N-(2,2,2-trifluoroethyl)acetamide], the “DDR1 pIC50” value in assay [1] is “A (pIC50>8)”. Also, the IC50 in assay [2] was 100 to 1000 nM.

For the molecule `Cn1ncc2c(-c3ccc(-n4c(=O)n(CC(=O)NCC(F)(F)F)c5ccccc54)c(F)c3)cncc21` [Example 15, 2-[3-[2-fluoro-4-(1-methylpyrazolo[3,4-c]pyridin-4-yl)phenyl]-2-oxo-benzimidazol-1-yl]-N-(2,2,2-trifluoroethyl)acetamide], the IC50 in assay [1] was 100 to 1000 nM. Further, the “DDR2 pIC50” value in assay [2] was “D (pIC50≤6)”. Regarding `Cc1cc(-c2cncc3c2cnn3C)ccc1-n1c(=O)n(CC(=O)NCC(F)(F)F)c2cccc(C)c21` [Example 16, 2-[4-methyl-3-[2-methyl-4-(1-methylpyrazolo[3,4-c]pyridin-4-yl)phenyl]-2-oxo-benzimidazol-1-yl]-N-(2,2,2-trifluoroethyl)acetamide], the “DDR1 pIC50” value in assay [1] was “A (pIC50>8)”. In addition, the IC50 in assay [2] was 100 to 1000 nM. On to `CC(NC(=O)Cn1c(=O)n(-c2ccc(-c3cncc4c3cnn4C)cc2)c2ccccc21)C(F)(F)F` (stereo not shown) [Example 17, 2-[3-[4-(1-methylpyrazolo[3,4-c]pyridin-4-yl)phenyl]-2-oxobenzimidazol-1-yl]-N-(2,2,2-trifluoro-1-methylethyl)acetamide], for which the values for the IC50 in assay [1] and in assay [2] were 10 to 100 nM and 100 to 1000 nM, respectively. `Cn1ncc2c(-c3ccc(-n4c(=O)n(CC(=O)N5CCCC5C(F)(F)F)c5ccccc54)cc3)cncc21` (stereo not shown) [Example 18, 1-[4-(1-methylpyrazolo[3,4-c]pyridin-4-yl)phenyl]-3-[2-oxo-2-[2-(trifluoromethyl)pyrolidin-1-yl]ethyl]benzimidazol-2-one]: the “DDR1 pIC50” value in assay [1] is recorded as “A (pIC50>8)”. In addition, the IC50 in assay [2] was 10 to 100 nM. In the case of `CC(NC(=O)Cn1c(=O)n(-c2ccc(-c3cncc4c3cnn4C)cc2)c2ccccc21)C1CC1` (stereo not shown) [Example 19, N-(1-cyclopropylethyl)-2-[3-[4-(1-methylpyrazolo[3,4-c]pyridin-4-yl)phenyl]-2-oxobenzimidazol-1-yl]acetamide], the IC50 in assay [1] was 10 to 100 nM. Further, the “DDR2 pIC50” value in assay [2] is reported as “D (pIC50≤6)”. With `Cn1ncc2c(-c3ccc(-n4c(=O)n(CC(=O)N5CCCCC5C(F)(F)F)c5ccccc54)cc3)cncc21` (stereo not shown) [Example 20, 1-[4-(1-methylpyrazolo[3,4-c]pyridin-4-yl)phenyl]-3-[2-oxo-2-[2-(trifluoromethyl)-1-piperidyl]ethyl]benzimidazol-2-one], the “DDR1 pIC50” value in assay [1] is “A (pIC50>8)”. The IC50 in assay [2] was 100 to 1000 nM. As to `Cc1cccc2c1n(-c1ccc(-c3cncc4c3cnn4C)cc1)c(=O)n2CC(=O)N1CCC[C@H]1CF` [Example 26, 4-methyl-3-[4-(1-methylpyrazolo[3,4-c]pyridin-4-yl)phenyl]-1-[2-oxo-2-[(2S)-2-(fluoromethyl)pyrrolidin-1-yl]ethyl]benzimidazol-2-one], the IC50 in assay [1] was 10 to 100 nM. Consider `Cc1cccc2c1n(-c1ccc(-c3cncc4c3cnn4C)cn1)c(=O)n2CC(=O)N1CCO[C@H](C(F)(F)F)C1` [Example 61, 4-methyl-3-[5-(1-methylpyrazolo[3,4-c]pyridin-4-yl)-2-pyridyl]-1-[2-oxo-2-[(2S)-2-(trifluoromethyl)morpholin-4-yl]ethyl]benzimidazol-2-one], for which the IC50 in assay [2] was 100 to 1000 nM.

With `CN(C)c1cccc2c1n(-c1ccc(-c3cncc4c3cnn4C)cc1)c(=O)n2CC(=O)NCC(F)(F)F` [Example 80, 2-[4-(dimethylamino)-3-[4-(1-methylpyrazolo[3,4-c]pyridin-4-yl)phenyl]-2-oxo-benzimidazol-1-yl]-N-(2,2,2-trifluoroethyl)acetamide], the IC50 in assay [1] is 10 to 100 nM.
